Measurements from patent EP4800018A1, “PAN-KRAS INHIBITOR AND USE THEREOF IN MEDICINES” (Betta Pharmaceuticals Co., Ltd., priority 2023, dated 2025).
Read-outs that look alike come from different tables or passages of the source.

Columns and labels:
Assay type in all cases: cell-based
[1] = test system: KRAS-G12D mutant tumor cells AGS; test: Cell Proliferation Inhibition Assay (AGS), Cell-titer GLO, 96 h; details: AGS cells, 96 h incubation, Cell-titer GLO, read-out: AGS(G12D)
Summary of the method: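 AGS cells (KRAS-G12D) grown in low-attachment plates were exposed to compound for 96 h at 37°C. Viability was read by CellTiter-Glo luminescence and converted to % inhibition against max and blank wells. IC50 came from curve fitting.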

[2] = test system: KRAS-G12V mutant tumor cells SW620; test: Cell Proliferation Inhibition Assay (SW620), Cell-titer GLO, 96 h; details: SW620 cells, 96 h incubation, Cell-titer GLO, read-out: SW620(G12V)
Summary of the method: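 SW620 cells (1×10^3/well, low-attachment) were exposed to compound from 10000 to 0.03 nM (0.5% DMSO) for 96 h at 37°C. Viability was read by Cell-titer GLO luminescence. Inhibition was calculated relative to DMSO and blank wells, and IC50 obtained by curve fitting.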

KRAS G12D-cRAF = target: T1, KRAS G12D-cRAF (Homo sapiens, UniProt P01116, G12D); test: Cellular KRAS G12D-cRAF Binding Inhibition Assay (NanoBRET, AD293 stable cells); details: 3 h incubation, read-out: NanoBRET KRAS G12D
T1 construct: expressed in transfected cells
T1 sequence (P01116 1-188 isoform P01116-2 G12D): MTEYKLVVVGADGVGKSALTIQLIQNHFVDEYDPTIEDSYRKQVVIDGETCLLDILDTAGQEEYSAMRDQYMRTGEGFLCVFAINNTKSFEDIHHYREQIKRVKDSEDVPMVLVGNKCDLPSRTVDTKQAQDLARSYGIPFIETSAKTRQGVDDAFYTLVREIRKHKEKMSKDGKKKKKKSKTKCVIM
Summary of the method: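 AD293 cells stably expressing KRAS G12D-NanoLuc and cRAF RBD-HaloTag were seeded at 1×10^4 cells/well with NanoBRET 618 ligand overnight. BRET signal was converted to % inhibition of binding relative to max and blank wells, and IC50 came from curve fitting.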

KRAS G12V-cRAF = target: T2, KRAS G12V-cRAF (Homo sapiens, UniProt P01116, G12V); test: Cellular KRAS G12V-cRAF Binding Inhibition Assay (NanoBRET, AD293 stable cells); details: 3 h incubation, read-out: NanoBRET KRAS G12V
T2 construct: expressed in transfected cells
T2 sequence (P01116 1-188 isoform P01116-2 G12V): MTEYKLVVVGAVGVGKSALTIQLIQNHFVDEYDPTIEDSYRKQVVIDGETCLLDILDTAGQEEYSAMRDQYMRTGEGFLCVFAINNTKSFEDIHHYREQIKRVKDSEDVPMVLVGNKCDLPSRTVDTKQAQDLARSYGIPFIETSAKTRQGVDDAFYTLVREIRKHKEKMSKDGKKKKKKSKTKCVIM
Summary of the method: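 Live AD293 stable cells, NanoLuc donor with HaloTag NanoBRET 618 ligand acceptor added overnight. Inhibition percent from luminescence relative to max signal and medium blank; IC50 from curve fitting.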

Structure (SMILES) | IC50 ([1]; Homo sapiens, AGS, 96 h) [nM] | IC50 ([2]; Homo sapiens, SW-620, 96 h) [nM] | IC50 (KRAS G12D-cRAF) [nM] | IC50 (KRAS G12V-cRAF) [nM] | IC50 [1] [nM] | IC50 [2] [nM]
CCN1CCN(c2cnc3c(c2)-c2c4c5cc(ccc5n2CCCOC3C)-c2csc(n2)CC(NC(=O)C23COC(C)(C2)C3)C(=O)N2CCCC(N2)C(=O)OCC(C)(C)C4)CC1 [Example 124, (1S,4r)-N-((1^5S,6^3S,4S,Z)-1^2-(4-ethylpiperazin-1-yl)-1^5,10,10-trimethyl-5,7-dioxo-1^8,1^9,6^1,6^2,6^3, 6^4,6^5,6^6-octahydro-1^5H,1^7H-8-oxa-1(13,15)-pyrido[3',2':7,8][1,5]oxazonino[5,6-a]indola-2(4,2)-thiazola-6(1,3)-pyridazinacycloundecaphane-4-yl)-1-methyl-2-oxabicyclo[2.1.1]hexane-4-carbox amide] | 4.67 | 1.45 | 8.38 | 18 | – | –
CC1OCCCn2c(c3c4cc(ccc42)-c2csc(n2)CC(NC(=O)C2CC2C(F)F)C(=O)N2CCCC(N2)C(=O)OCC(C)(C)C3)-c2cc(N3CCC4(CC3)COC4)cnc21 [Example 125, (1S,2S)-2-(difluoromethyl)-N-((1^5S,6^3S,4SZ)-1^5,10,10-trimethyl-5,7-dioxo-1^2-(2-oxa-7-azaspiro [3.5]nonan-7-yl)-1^8,1^9,6^1,6^2,6^3,6^4,6^5,6^6-octahydro-1^5H,1^7H-8-oxa-1(13,15)-pyrido[3',2':7,8][1,5]oxazonino[5,6-a]indola-2(4,2)-thiazola-6(1,3)-pyridazinacycloundecaphane-4-yl)cyclopropane-1-carboxamide] | 2.8 | 0.6 | 4.55 | 14.7 | – | –
CC1CN(c2cnc3c(c2)-c2c4c5cc(ccc5n2CCCOC3C)-c2csc(n2)CC(NC(=O)C2CC2C(F)F)C(=O)N2CCCC(N2)C(=O)OCC(C)(C)C4)CC(C)O1 [Example 128, (1S,2S)-2-(difluoromethyl)-N-((1^5S,6^3S,4S,Z)-1^2-((2S,6R)-2,6-dimethylmorpholino)-1^5,0,10-trimethyl-5,7-dioxo-1^8,1^9,6^1,6^2,6^3,6^4,6^5,6^6-octahydro-1^5H,1^7H-8-oxa-1(13,15)-pyrido[3',2':7,8][1,5]oxazonino[5,6-a]indola-2(4,2)-thiazola-6(1,3)-pyridazinacycloundecaphane-4-yl)cyclopropane-1-carboxamide] | 1.28 | 0.29 | 2.5 | 11.4 | – | –
CC1CN(c2cnc3c(c2)-c2c4c5cc(ccc5n2CCCOC3C)-c2csc(n2)CC(NC(=O)C2CC2C(F)F)C(=O)N2CCCC(N2)C(=O)OCC(C)(C)C4)CCO1 [Example 130, (1S,2S)-2-(difluoromethyl)-N-((1^5S,6^3S,4S,Z)-1^5,10,10-trimethyl-1^2-((R)-2-methylmorpholino)-5,7-dioxo-1^8,1^9,6^1,6^2,6^3,6^4,6^5,6^6-octahydro-1^5H,^7H-8-oxa-1(13,15)-pyrido[3',2':7,8][1,5]oxazonino[5,6-a]indola-2(4,2)-thiazola-6(1,3)-pyridazinacycloundecaphane-4-yl)cyclopropane-1-carbox amide] | 1.8 | 0.85 | 3.4 | 16.3 | – | –
CC1CN(c2cnc3c(c2)-c2c4c5cc(ccc5n2CCCOC3C)-c2csc(n2)CC(NC(=O)C2CC2C(F)F)C(=O)N2CCCC(N2)C(=O)OCC(C)(C)C4)CC(C)O1 [Example 131, (1S,2S)-2-(difluoromethyl)-N-((1^5S,6^3S,4S,Z)-1^2-((2S,6S)-2,6-dimethylmorpholino)-1^5,10,10-trimethyl-5,7-dioxo-1^8,1^9,6^1,6^2,6^3,6^4,6^5,6^6-octahydro-1^5H,1^7H-8-oxa-1(13,15)-pyrido[3',2':7,8][1,5]oxazonino[5,6-a]indola-2(4,2)-thiazola-6(1,3)-pyridazinacycloundecaphane-4-yl)cyclopropane-1-carboxamide] | – | – | 2.57 | 11 | 1.31 | 0.51
CC1OCCCn2c(c3c4cc(ccc42)-c2csc(n2)CC(NC(=O)C2CC2C(F)F)C(=O)N2CCCC(N2)C(=O)OCC(C)(C)C3)-c2cc(N3CCS(=O)(=O)CC3)cnc21 [Example 133, (1S,2S)-2-(difluoromethyl)-N-((1^5S,6^3S,4S,Z)-1^2-(1,1-dioxidothiomorpholino)-1^5,10,10-trimethy 1-5,7-dioxo-1^8,1^9,6^1,6,^26^3,6^4,6^5,6^6-octahydro-1^5H,1^7H-8-oxa-1(13,15)-pyrido[3',2':7,8][1,5]oxazonino[5,6-alindola-2(4,2)-thiazola-6(1,3)-pyridazinacycloundecaphane-4-yl)cyclopropane-1-carboxamide] | 1.25 | 0.79 | 9.2 | 40.9 | – | –
CC1OCCCn2c(c3c4cc(ccc42)-c2csc(n2)CC(NC(=O)C2CC2C(F)F)C(=O)N2CCCC(N2)C(=O)OCC(C)(C)C3)-c2cc(N3CC[S+]([O-])CC3)cnc21 [Example 134, (1S,2S)-2-(difluoromethyl)-N-(((1^5S,6^3S,4S,Z)-1^5,10,10-trimethyl-1^2-(1-oxidothiomorpholino)-5,7-dioxo-1^8,1^9,6^1,6^2,6^3,6^4,6^5,6^6-octahydro-1^5H,1^7H-8-oxa-1(13,15)-pyrido[3',2':7,8][1,5]oxazonino[5,6-alindola-2(4,2)-thiazola-6(1,3)-pyridazinacycloundecaphane-4-yl)cyclopropane-1-carboxamide] | 1.7 | 1.44 | 13.7 | 59 | – | –
COC1CCN(c2cnc3c(c2)-c2c4c5cc(ccc5n2CCCOC3C)-c2csc(n2)CC(NC(=O)C2CC2C(F)F)C(=O)N2CCCC(N2)C(=O)OCC(C)(C)C4)C1 [Example 135, (1S,2S)-2-(difluoromethyl)-N-((1^5S,6^3S,4S,Z)-1^2-((R)-3-methoxypyrrolidin-1-yl)-1^5,10,10-trimethyl-5,7-dioxo-1^8, 1^9,6^1 ,6^2,6^3,6^4,6^5 ,6^6-octahydro-1^5H,1^7H-8-oxa-1(13,15)-pyrido[3',2':7,8][1,5]oxazonino[5,6-a]indola-2(4,2)-thiazola-6(1,3)-pyridazinacycloundecaphane-4-yl)cyclopropane-1-car boxamide] | – | – | 2.39 | 10.6 | 2.2 | 0.7
COC1CCN(c2cnc3c(c2)-c2c4c5cc(ccc5n2CCCOC3C)-c2csc(n2)CC(NC(=O)C2CC2C(F)F)C(=O)N2CCCC(N2)C(=O)OCC(C)(C)C4)C1 [Example 136, (1S,2S)-2-(difluoromethyl)-N-((1^5S,6^3S,4S,Z)-1^2-((S)-3-methoxypyrrolidin-1-yl)-1^5,10,10-trimethyl-5,7-dioxo-1^8,1^9,6^1,6^2,6^3,6^4,6^5,6^6-octahydro-1^5H,1^7H-8-oxa-1(13,15)-pyrido[3',2':7,8][1,5]oxazonino[5,6-alindola-2(4,2)-thiazola-6(1,3)-pyridazinacycloundecaphane-4-yl)cyclopropane-1-carboxamide] | – | – | 4.59 | 19.6 | 5.6 | 1.5
CC1OCCCn2c(c3c4cc(ccc42)-c2csc(n2)CC(NC(=O)C2CC2C(F)F)C(=O)N2CCCC(N2)C(=O)OCC(C)(C)C3)-c2cc(N3CCN(C)C(C)C3)cnc21 [Example 138, (1S,2S)-2-(difluoromethyl)-N-((1^5S,6^3S,4S,Z)-1^2-((R)-3,4-dimethylpiperazin-1-yl)-1^5,10,10-trimethyl-5,7-dioxo-1^8,1^9,6^1,6^2,6^3,6^4,6^5,6^6-octahydro-1^5H,1^7H-8-oxa-1(13,15)-pyrido[3',2':7,8][1,5]oxazonino[5,6-a]indola-2(4,2)-thiazola-6(1,3)-pyridazinacycloundecaphane-4-yl)cyclopropane-1-carboxamide] | 1.59 | 0.63 | 3.2 | 14.7 | – | –
CC1OCCCn2c(c3c4cc(ccc42)-c2csc(n2)CC(NC(=O)C2CC2C(F)F)C(=O)N2CCCC(N2)C(=O)OCC(C)(C)C3)-c2cc(N3CC(C)N(C)C(C)C3)cnc21 [Example 140, (1S,2S)-2-(difluoromethyl)-N-((1^5S,6^3S,4S,Z)-1^5,10,10-trimethyl-5,7-dioxo-1^2-((3S,5R)-3,4,5-trimethylpiperazin-1-yl)-1^8,1^9,6^1,6^2,6^3,6^4,6^5,6^6-octahydro-1^5H,1^7H-8-oxa-1(13,15)-pyrido[3',2':7,8] [1,5]oxazonino[5,6-a]indola-2(4,2)-thiazola-6(1,3)-pyridazinacycloundecaphane-4-yl)cyclopropane-1-carboxamide] | 0.38 | 0.14 | 1.8 | 9.3 | – | –
